Results reported in patent publication US20240254066A1, “RESCORCINOLS, METHODS FOR THEIR MANUFACTURE, AND USES THEREOF” (GW Research Limited, priority 2021, published 2024).

System: tonic hind limb extensor convulsions (mouse model of generalised seizure)
Assay: mini-MEST (maximal electroshock seizure threshold) test in the mouse
Settings: for change in vivo at 50 mg/kg / change in vivo at 25 mg/kg: 0.5 h; for change in vivo at 50 mg/kg: read-out: % change from vehicle, 50 mg/kg i.p., 30 min post dose; for change in vivo at 25 mg/kg: read-out: % change from vehicle, 25 mg/kg i.p., 30 min post dose
Procedure: The efficacy of novel resorcinols 2, 3, 5, 8, 10, 15, 16, 17, 18, 19, 41 45, 46, 53, 56 and 58 were tested in a novel mouse model of generalised seizure, the mini-MEST (maximal electroshock seizure threshold) test, which uses lower n numbers than typically used.
The maximal electroshock seizure threshold (MEST) test is widely utilized preclinically to evaluate pro- or anti-convulsant properties of test compounds (Loscher et al., 1991).
In the MEST test the ability of a drug to alter the seizure threshold current required to induce hind limb tonic extensor convulsions is measured according to an “up and down” method of shock titration (Kimball et al., 1957). An increase in seizure threshold is indicative of anti-convulsant effect.
The ability of a test compound to alter the stimulus intensity, expressed as current (mA), required to induce the presence of tonic hind limb extensor convulsions, is assessed in the MEST.
Naïve mice were acclimatised to the procedure room in their home cages for up to 7 days, with food and water available ad libitum.
All animals were weighed at the beginning of the study and randomly assigned to treatment groups based on a mean distribution of body weight across groups.
The first animal within a treatment group was given a shock at the expected or estimated CC50 current. For subsequent animals, the current was lowered or raised depending on the convulsions outcome from the preceding animal in log scale intervals.
Data generated from each treatment group were used to calculate the CC50±SEM values for the treatment group.
Vehicle: (5% ethanol, 10% solutol in 85% Saline) was prepared as follows: 1 mL of ethanol, 2 mL of solutol were warmed to 60° C., in 17 mL of saline (1:2:17).
The test compounds used were 2, 3, 5, 8, 10, 15, 16, 17, 18, 19, 41, 45, 46, 53, 56 and 58 Test compounds were administered at 5-50 mg/kg (i.p.) in a 1:2:17 ethanol:solutol:saline formulation.
Test compound effects were also calculated as percentage change in CC50 from the vehicle control group.
Significant difference between drug-treated animals and controls were assessed according to Litchfield and Wilcoxon (1949).

[1] = 50 mg/kg i.p., test 30 min post dose
[2] = Mus musculus, ip, change in CC50
[3] = 25 mg/kg i.p., test 30 min post dose

SMILES | CC50 +/− SEM [1] | change in vivo at 50 mg/kg [2] | CC50 +/− SEM [3] | change in vivo at 25 mg/kg [2] | CC50 +/− SEM (5 mg/kg i.p., test 15 min post dose) | change in vivo at 5 mg/kg (Mus musculus, ip, 0.25 h, read-out: % change from vehicle, 5 mg/kg i.p., 15 min post dose, change in CC50)
C=C(C)[C@@H]1C[C@H](O)C(C)=C[C@H]1c1c(O)cc(CCC)c(Cl)c1O [Compound 46, (1′R,2′R,4′S)-3-chloro-5′-methyl-2′-(prop-1-en-2-yl)-4-propyl-1′,2′,3′,4′-tetrahydro-[1,1′-biphenyl]-2,4′,6-triol] | 84.0 ± 3.4 mA | 217% |  |  |  | 
C=C(C)[C@@H]1C[C@H](O)C(C)=C[C@H]1c1c(O)cc(Br)c(Cl)c1O [Compound 47, (1′R,2′R,4′S)-4-bromo-3-chloro-5′-methyl-2′-(prop-1-en-2-yl)-1″,2″,3′,4′-tetrahydro-[1,1′-biphenyl]-2,4′,6-triol] |  |  | 79.5 ± 10.0 mA | 238% |  | 
C=C(C)[C@@H]1C[C@H](O)C(C)=C[C@H]1c1c(O)cc(-c2cccc(OC)c2)c(Cl)c1O [Compound 49, (1R,2R,4S)-3′-Chloro-3″-methoxy-5-methyl-2-(prop-1-en-2-yl)-1,2,3,4-tetrahydro-[1,1′:4′,1″-terphenyl]-2′,4,6′-triol] | 97.5 ± 1.3 mA | 244% |  |  |  | 
C=C(C)[C@@H]1C[C@H](O)C(C)=C[C@H]1c1c(O)c(C)c(-c2ccnc(OC)c2)c(C)c1O [Compound 52, (1′R,2′R,4′S)-4-(2-Methoxypyridin-4-yl)-3,5,5′-trimethyl-2′-(prop-1-en-2-yl)-1′,2′,3′,4′-tetrahydro-[1,1′-biphenyl]-2,4′,6-triol] | 76.5 ± 2.6 mA | 170% |  |  | 31.0 ± 4.5 mA | 9%
C=C(C)[C@@H]1C[C@H](OC)C(C)=C[C@H]1c1c(O)cc(CCC)cc1O [Compound 53, (1′R,2′R,4′S)-4′-Methoxy-5′-methyl-2′-(prop-1-en-2-yl)-4-propyl-1′,2″,3′,4′-tetrahydro-[1,1′-biphenyl]-2,6-diol] |  |  | 29.0 +/− 1.5 mA | 29% |  | 
C=C(C)[C@@H]1C[C@H](O)C(C)=C[C@H]1c1c(O)cc(-c2ccnc(C(F)(F)F)c2)cc1O [Compound 58, (1′R,2′R,4′S)-5′-Methyl-2′-(prop-1-en-2-yl)-4-(2-(trifluoromethyl)pyridin-4-yl)-1′,2′,3′,4′-tetrahydro-[1,1′-biphenyl]-2,4′,6-triol] | 88.5 ± 1.3 mA | 234% |  |  |  | 
